Results on one compound are retold here after patent US8466172B2, “Stabilization of hypoxia inducible factor (HIF) alpha” (FibroGen, Inc., priority 2001, dated 2013).

The subject of this assay is Wistar rats, acute myocardial infarction (AMI). The assay is described as follows: Cardiac ischemia Experiment I, 4-week study after acute myocardial infarction. The format is in vivo, rat. Particulars: for fractional shortening: Treated-MI. The text has this: Seventy adult male Wistar rats (200-250 g) were anaesthetized and subjected to left coronary artery occlusion to produce acute myocardial infarction (AMI). Nine animals were subjected to identical surgery without coronary artery ligation. Twenty-four to forty-eight hours after surgery, electrocardiogram (ECG) electrodes were applied to the paws and a 15 MHz linear probe (Acuson Corp., Mountain View Calif.) was applied to the chest to obtain short axis transthoracic echocardiography (2DE) images at the mid-papillary muscle level. The probe was moved cephalad or caudad and angulated until clear endocardial visualization of the left ventricular cavity was detected. Images were obtained using the Sequoia ultrasound system (Acuson). Animals with less than 20% fractional shortening and regional wall motion abnormality on the 2DE were randomized to treatment with compound A (n=14) or vehicle (n=12). The sham controls were also randomized to treatment with compound A (n=4) or vehicle (n=5).
Animals were treated by gavage 2 times per day for the duration of the experiment with compound A at 50 mg/kg or with vehicle alone. Serum level of drug was determined periodically to establish that treated animals received sufficient and consistent amount of drug and that the measured levels were sufficient to inhibit prolyl 4-hydroxylase, a representative 2-oxoglutarate dioxygenase.
Serial 2DE images were obtained weekly. Three short axis 2DE digital clips containing 5 or more systolic and diastolic frames were captured and stored. Two observers blinded to treatment did measurements off-line. For the measurements, the digital images were slowed and frozen at end systole and end diastole. Two systolic and two diastolic frames from each of the three digital clips were measured by consensus and averaged. The anterior wall in systole (AWS) and diastole (AWD), posterior wall in systole (PWS) and diastole (PWD), and left ventricular end systolic (LVESD) and end diastolic (LVEDD) were measured according to the American Society for Echocardiology (ASE) leading-edge method. For consistency, measurements were done from the anterior to the posterior mid points of the left ventricular cavity and were randomly repeated to ensure reproducibility (reproducibility was approximately 96%).
At four weeks of treatment, in vivo hemodynamic measurements were determined, as described below, both before and after infusion (0.2 ml over 1 minute) of […] isoproterenol via the femoral vein. Hearts were then excised and weighed as described below.
To collect in vivo hemodynamic measurements, animals were anaesthetized and the right carotid artery was dissected free from surrounding tissues and canulated with an SPR-671 ultra-miniature pressure transducer (Millar Instruments, Inc., Houston Tex.). The catheter was then advanced into the left ventricle. After steady state was established, baseline heart rate (HR), developed pressure (DP), contractile index (CI), left ventricle systolic pressure (SBP) and end diastolic pressure (LVEDP), and maximal rate of pressure rise and fall (+dP/dt and −dP/dt, respectively) were recorded.
Following hemodynamic measurement, hearts were excised and weighed. Pieces of scarred myocardium, and right ventricle and left ventricle myocardium distant from the site of infarct were dissected out and weighed. Hydroxyproline and proline were determined by the method of Palmerini et al. (1985, J Chromatogr 339:285-92) except that L-azetidine-2-carboxylic acid (Sigma-Aldrich) was substituted for 3,4-dehydroproline as the internal standard.

“And” between values parts separate entries of the source, which are not always exact repeats. Identical values can stand only once.

For the compound `O=C(O)c1c[nH]c2c(ccc3cccnc32)c1=O` [Compound A, 4-oxo-1,4-dihydro-[1,10]phenanthroline-3-carboxylic acid], for the setting “4 weeks post-MI”, the “Hydroxyproline/proline in infarct scar” value came to 0.34 ± 0.08, the “Hydroxyproline/proline in non-infarct left ventricular myocardium” value worked out at 0.12 ± 0.06 and the “Hydroxyproline/proline in non-infarct right ventricular myocardium” value was 0.13 ± 0.02. For the setting “4 weeks post-MI, baseline”, the “+dP/dt” value is given as 9477 ± 581 mm Hg/sec, the Developed pressure turned out to be 133 ± 6 mm Hg, the “Systolic BP” value was found to be 143 ± 7 mm Hg and the “−dP/dt” value is recorded as 9978 ± 827 mm Hg/sec. Under “4 weeks post-MI, isoproterenol”, the “+dP/dt” value was 16830 ± 1195 mm Hg/sec, the Developed pressure is 121 ± 9 mm Hg, the “Systolic BP” value was found to be 130 ± 9 mm Hg and the “−dP/dt” value is 9234 ± 703 mm Hg/sec. The fractional shortening (week 0 (baseline)) is 10% and 10 ± 0.8%. Where the note is “week 1”, this compound returned a fractional shortening of 17 ± 1%. For the same compound, under “week 2”, the fractional shortening is 20% and 20 ± 2%; the “increase in fractional shortening relative to baseline” value worked out at 79%. In addition, the fractional shortening (week 3) worked out at 21 ± 2%. For the same compound, under “week 4”, the fractional shortening worked out at 21 ± 3%.
